According to patent US20100119479A1, “THERAPEUTIC ANTIVIRAL PEPTIDES” (INTERMUNE, INC., priority 2008, published 2010):
pEC50, pIC50: −log10 of the molar value.

How the values were obtained:
[1] = biological target: T1, full-length NS3/NS4A-2 (HCV NS3 protease) (Hepatitis C virus genotype 1b, UniProt Q9WMX2); experiment: NS3 Inhibition Assay (NS3-NS4 protease assay, RETS1 substrate); type: biochemical; settings: NS3/NS4A-2 protease
T1 construct: Recombinant E. coli or Baculovirus full-length NS3; host or cells: E. coli or baculovirus (BV) expression
T1 sequence (Q9WMX2 1027-1657): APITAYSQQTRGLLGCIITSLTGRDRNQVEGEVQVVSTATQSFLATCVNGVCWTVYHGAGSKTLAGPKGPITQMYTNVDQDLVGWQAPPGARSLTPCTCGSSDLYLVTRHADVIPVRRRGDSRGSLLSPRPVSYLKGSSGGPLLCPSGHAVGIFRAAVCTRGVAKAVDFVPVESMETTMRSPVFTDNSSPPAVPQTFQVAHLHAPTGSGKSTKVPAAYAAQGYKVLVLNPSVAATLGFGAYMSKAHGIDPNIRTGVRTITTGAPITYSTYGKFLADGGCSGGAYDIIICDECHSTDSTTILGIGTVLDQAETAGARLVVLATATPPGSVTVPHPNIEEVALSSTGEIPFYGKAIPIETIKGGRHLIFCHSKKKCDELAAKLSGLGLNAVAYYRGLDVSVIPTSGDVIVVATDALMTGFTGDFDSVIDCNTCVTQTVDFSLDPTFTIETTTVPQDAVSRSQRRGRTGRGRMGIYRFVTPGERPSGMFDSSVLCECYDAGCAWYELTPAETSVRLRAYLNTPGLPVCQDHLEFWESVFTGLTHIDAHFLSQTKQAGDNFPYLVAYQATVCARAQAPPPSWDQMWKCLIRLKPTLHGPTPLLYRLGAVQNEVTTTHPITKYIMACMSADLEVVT
T1 sequence (Q9WMX2 1658-1711): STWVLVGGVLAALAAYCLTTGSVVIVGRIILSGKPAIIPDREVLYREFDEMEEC
Summary of the method: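 Full-length NS3 (E. coli 2 nM or baculovirus 3 nM) precomplexed with excess NS4A-2, preincubated 10 min at room temperature with compound (top 50 μM). Then 2 μM RETS1 FRET substrate added, fluorescence (ex 335/em 495 nm) read kinetically for 30 min. IC50 by 4-parameter fit, converted to Ki using Km 2.03 μM (E. coli) or 1.74 μM (BV).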

[2] = tested on: HCV sub-genomic replicon, GS4.3 (HuH-7 hepatoma cells); experiment: Quantitation by ELISA of NPTII in the HCV sub-genomic replicon, GS4.3; type: cell-based; settings: Hepatitis C virus, GS4.3 replicon cells, 72 h incubation
Summary of the method: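 HuH-7 cells carrying the 1377/NS3-3′ subgenomic replicon were seeded 24 h ahead, then treated in G418-free medium with 3-fold dilutions from 10 μM (1% DMSO, duplicates) for 72 h at 37 °C, 5% CO2. NPTII in lysates was measured by ELISA (TMB, 450 nm). EC50 came from a 4-parameter fit of percent DMSO-control signal.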

Structure (SMILES)	pIC50 [1]	pEC50 [2]
C=C[C@@H]1C[C@]1(NC(=O)[C@@H]1C[C@@H](Oc2cc(-c3nc(C(C)C)cs3)nc3c(C)c(OC)ccc23)CN1C(=O)[C@@H](Nc1cc(C)cc(C(F)(F)F)c1)C(C)(C)C)C(=O)NS(=O)(=O)C1(C)CC1 [Compound 402]	> 7.00	> 7.00
CC[C@@H]1C[C@]1(NC(=O)[C@@H]1C[C@@H](OC(=O)N2Cc3cccc(F)c3C2)CN1C(=O)[C@@H](Nc1cccc(C(F)(F)F)c1)C(C)(C)C)C(=O)NS(=O)(=O)C1(C)CC1 [Compound 290]	> 7.00	> 7.00
C=C[C@@H]1C[C@]1(NC(=O)[C@@H]1C[C@@H](Oc2cc(-c3ccccc3)nc3cc(OC)ccc23)CN1C(=O)[C@@H](Nc1cc(F)cc(C(F)(F)F)c1)C(C)(C)C)C(=O)NS(=O)(=O)C1(C)CC1 [Compound 281]	> 7.00	> 7.00
